Assays:
Format in all cases: cell-based
[1] = system: K. pneumoniae 11/23 LF#2; assay: microbe, parasite or virus in culture
[2] = system: E. coli SI-NO36; assay: Broth microdilution MIC (strain enzymes: SHV-11, TEM-1)
[3] = system: K. pneumoniae BAA 1705; assay: Broth microdilution MIC (strain KPC-producing)
[4] = system: K. pneumoniae KP 8; assay: Broth microdilution MIC (strain enzymes: TEM-10, TEM-1, CTX-M15)
[5] = system: E. coli SI-AIRT-4; assay: Broth microdilution MIC (strain enzymes: TEM-1)
[6] = system: E. coli SI-V502; assay: Broth microdilution MIC (strain enzymes: TEM-29, CTX-M15)

## CCC(=O)N[C@H]1Cc2cccc(C(=O)O)c2OB1O [Compound 2, (R)-2-hydroxy-3-propionamido-3,4-dihydro-2H-benzo[e][1,2]oxaborinine-8-carboxylic acid]
[1]; with inhibitor at 1 μg/mL
  MIC of ceftibuten (CTB): 0.25 µg/mL
[1]; with inhibitor at 2 μg/mL
  MIC of cefalexin (LEX): 0.5 µg/mL
  MIC of cefdinir (CDR): 0.5 µg/mL
  MIC of cefixime (CFM): 2 µg/mL
  MIC of ceftibuten (CTB): 0.25 µg/mL
[1]; with inhibitor at 4 μg/mL
  MIC of cefalexin (LEX): 0.25 µg/mL
  MIC of cefdinir (CDR): 0.25 µg/mL
  MIC of cefixime (CFM): 1 µg/mL
  MIC of ceftibuten (CTB): 0.125 µg/mL
[2]; with inhibitor at 1 μg/mL
  MIC of cefalexin (LEX): 0.125 µg/mL
  MIC of cefdinir (CDR): 0.125 µg/mL
  MIC of cefixime (CFM): 0.5 µg/mL
  MIC of ceftibuten (CTB): 0.06 µg/mL
[2]; with inhibitor at 2 μg/mL
  MIC of cefalexin (LEX): 0.125 µg/mL
  MIC of cefdinir (CDR): 0.125 µg/mL
  MIC of cefixime (CFM): 0.25 µg/mL
  MIC of ceftibuten (CTB): 0.125 µg/mL
[2]; with inhibitor at 4 μg/mL
  MIC of cefalexin (LEX): 0.25 µg/mL
  MIC of cefdinir (CDR): 0.25 µg/mL
  MIC of cefixime (CFM): 0.5 µg/mL
  MIC of ceftibuten (CTB): 0.06 µg/mL
[3]; with inhibitor at 1 μg/mL
  MIC of cefalexin (LEX): 4 µg/mL
  MIC of cefdinir (CDR): 4 µg/mL
  MIC of cefixime (CFM): 0.5 µg/mL
  MIC of ceftibuten (CTB): 0.5 µg/mL
[3]; with inhibitor at 2 μg/mL
  MIC of cefalexin (LEX): 2 µg/mL
  MIC of cefdinir (CDR): 2 µg/mL
  MIC of cefixime (CFM): 0.5 µg/mL
  MIC of ceftibuten (CTB): 0.5 µg/mL
[3]; with inhibitor at 4 μg/mL
  MIC of cefalexin (LEX): 1 µg/mL
  MIC of cefdinir (CDR): 1 µg/mL
  MIC of cefixime (CFM): 0.25 µg/mL
  MIC of ceftibuten (CTB): 0.25 µg/mL
[4]; with inhibitor at 1 μg/mL
  MIC of cefalexin (LEX): 0.25 µg/mL
  MIC of cefdinir (CDR): 0.25 µg/mL
  MIC of cefixime (CFM): 0.25 µg/mL
  MIC of ceftibuten (CTB): 0.06 µg/mL
[4]; with inhibitor at 2 μg/mL
  MIC of cefalexin (LEX): 0.125 µg/mL
  MIC of cefdinir (CDR): 0.125 µg/mL
  MIC of cefixime (CFM): 0.125 µg/mL
  MIC of ceftibuten (CTB): 0.03 µg/mL
[4]; with inhibitor at 4 μg/mL
  MIC of cefalexin (LEX): 0.125 µg/mL
  MIC of cefdinir (CDR): 0.125 µg/mL
  MIC of cefixime (CFM): 0.125 µg/mL
  MIC of ceftibuten (CTB): 0.03 µg/mL
[5]; with inhibitor at 1 μg/mL
  MIC of cefalexin (LEX): 0.25 µg/mL
  MIC of cefdinir (CDR): 0.25 µg/mL
  MIC of cefixime (CFM): 0.125 µg/mL
  MIC of ceftibuten (CTB): 0.06 µg/mL
[5]; with inhibitor at 2 μg/mL
  MIC of cefalexin (LEX): 0.25 µg/mL
  MIC of cefdinir (CDR): 0.25 µg/mL
  MIC of cefixime (CFM): 0.125 µg/mL
  MIC of ceftibuten (CTB): 0.06 µg/mL
[5]; with inhibitor at 4 μg/mL
  MIC of cefalexin (LEX): 0.25 µg/mL
  MIC of cefdinir (CDR): 0.25 µg/mL
  MIC of cefixime (CFM): 0.06 µg/mL
  MIC of ceftibuten (CTB): 0.06 µg/mL
[6]; with inhibitor at 1 μg/mL
  MIC of cefalexin (LEX): 1 µg/mL
  MIC of cefdinir (CDR): 1 µg/mL
  MIC of cefixime (CFM): 0.25 µg/mL
  MIC of ceftibuten (CTB): 0.25 µg/mL
[6]; with inhibitor at 2 μg/mL
  MIC of cefalexin (LEX): 0.5 µg/mL
  MIC of cefdinir (CDR): 0.5 µg/mL

Source: patent US12544395B2, “Combination compositions comprising a beta-lactamase inhibitor and uses thereof” (priority 2018, dated 2026)
